Test results taken from patent US20220062296A1, “COMBINATIONS OF GABAA ALPHA 5 AGONISTS AND SV2A INHIBITORS AND METHODS OF USING IN THE TREATMENT OF COGNITIVE IMPAIRMENT” (AGENEBIO, INC., priority 2020, published 2022).
“Also recorded” adds a separate entry of the source.

How the values were obtained:
[1] = Dynamic vapor sorption (DVS); format: physicochemical; details: for form recovered after the DVS experiment (XRPD): post DVS
Method: Dynamic vapor sorption data was collected on a Surface Measurement System DVS Intrinsic instrument. The samples were not dried prior to analysis. Sorption and desorption data were collected over a range from 5% to 95% RH in 10% RH increments under a nitrogen purge. The equilibrium criteria used for the analyses were 0.001 dm/dt weight change in 5 minutes with a minimum step time of 30 minutes and maximum equilibration time of 180 minutes with a 3-minute data logging interval. Data were not corrected for the initial moisture content of the sample. The samples were identified as having low, limited or significant hygroscopicity based on the definitions in the below table.

[2] = Differential scanning calorimetry / thermogravimetry (DSC, TGA); format: physicochemical; details: 10° C./min
Method: DSC was performed using a Mettler-Toledo DSC3+ differential scanning calorimeter. A tau lag adjustment is performed with indium, tin, and zinc. The temperature and enthalpy are adjusted with octane, phenyl salicylate, indium, tin and zinc. The adjustment is then verified with octane, phenyl salicylate, indium, tin, and zinc. The sample was placed into a hermetically sealed aluminum DSC pan, the weight was accurately recorded, and the sample was inserted into the DSC cell. A weighed aluminum pan configured as the sample pan was placed on the reference side of the cell. The pan lid was pierced prior to sample analysis. The samples were analyzed from −25° C. to 250° C. at 10° C./min.
Thermogravimetric analyses were performed using a Mettler-Toledo TGA/DSC3+ analyzer. Temperature calibration was performed using calcium oxalate, indium, tin, and zinc. The sample was placed in an aluminum pan. The pan was hermetically sealed, the lid was pierced, and the pan was then inserted into the TG furnace. A weighed aluminum pan configured as the sample pan was placed on the reference platform. The furnace was heated under nitrogen. Samples were analyzed from 25° C. to 350° C. at 10° C./min.

[3] = Competitive interconversion slurry experiments between crystalline forms (relative thermodynamic stability); format: physicochemical; details: ambient temperature; Form E also 55° C. and 77° C.
Method: Interconversion experiments were performed to identify the most thermodynamically stable anhydrous form of Compound 1 (Table 19). […] The choice of solvent affects the kinetics of polymorph conversion and not the thermodynamic relationship between polymorphic forms.
Various combinations of Forms B, E, F, and Material D were slurried with Form A at ambient and elevated temperatures (for experiments involving Form E). Different solvent systems were used and included a variety of water activities. Saturated solutions were generated and then added to the mixtures composed of approximately equivalent quantities of the forms. The mixtures were slurried for a particular duration of time and the solids harvested and analyzed by XRPD.

[4] = Storage and stress stability of crystalline forms (XRPD); format: physicochemical; details: for stability under ambient storage: ambient conditions
Method: XRPD patterns were collected with a PANalytical X'Pert PRO MPD or a PANalytical Empyrean diffractometer using an incident beam of Cu radiation produced using an Optix long, fine-focus source. An elliptically graded multilayer mirror was used to focus Cu Kα X-rays through the specimen and onto the detector. Prior to the analysis, a silicon specimen (NIST SRM 640e) was analyzed to verify the observed position of the Si 111 peak is consistent with the NIST-certified position. A specimen of the sample was sandwiched between 3-μm-thick films and analyzed in transmission geometry. A beam-stop, short antiscatter extension, and antiscatter knife edge were used to minimize the background generated by air. Sober slits for the incident and diffracted beams were used to minimize broadening from axial divergence. Diffraction patterns were collected using a scanning position-sensitive detector (X'Celerator) located 240 mm from the specimen and Data Collector software v. 5.5.

MAM-treated rats = details: cited from earlier work
[5] = tested on: memory-impaired aged (AI) rats; assay: Radial arm maze task with 2-hr retention interval, acute brivaracetam or seletracetam; format: in vivo, rat; details: doses 0.0625-4 mg/kg i.p.; repeated measures ANOVA
Method: (§1) The radial arm maze experiments used acute administration of seletracetam (0-4 mg/kg), brivaracetam (0-4 mg/kg), or saline vehicle given by intraperitoneal injection (in a volume of 1 ml/kg) 30-40 min prior to test sessions.
A radial arm maze (RAM) task was used to assess effects of acute drug treatment with seletracetam and brivaracetam. This protocol allowed within-subject assessment across drugs at different doses. The radial maze consisted of eight arms projecting from each side of an octagonal center platform, with a food well located at the distal end of each arm. Plexiglas blocks could be positioned to prevent entry into any arm. Extra-maze cues were provided in the room surrounding the maze and illumination was provided by an overhead light.
Pre-training, as described in detail in Chappell et al. Neuropharmacology 37: 481-487, (1998), consisted of habituation, standard win-shift training, and win-shift training with delays interposed between information and memory test phases. Drug treatments began two days after the completion of pre-training. Three arms were blocked at the beginning of each trial (information phase). The identity and configuration of the blocked arms were varied across trials. Food-deprived rats were allowed to retrieve food reward (Kellogg's Froot Loops™ cereal) from the five unblocked arms. […]

aged-impaired rats = assay: Water maze probe test after chronic brivaracetam (osmotic mini-pumps); format: in vivo, rat; details: 2 mg/kg/day
Method: as §1
Rats were trained and tested in a novel water maze environment to assess the effect of drug treatment. The water maze used here was housed in a different building and was surrounded by curtains with a novel set of patterns relative to the maze used for initial assessment of cognitive status. The training protocol consisted of 6 trials per day for 2 days to locate a submerged escape platform. On each trial, a rat was released in the maze from one of four equally spaced starting positions around the perimeter of the pool. The starting position varied from trial to trial. […] The rat was then removed from the platform and placed in a holding cage for another 40 s before the next trial. Approximately 24 hr after the last training trial, a probe test in the absence of the escape platform was given to assess spatial memory.

## COCc1nnc2n1Cc1c(C#Cc3cnc(OC)s3)ncn1-c1ccc(Cl)cc1-2 [Form A]
[1]; 5% to 95% RH
  hygroscopicity (DVS isotherm): low hygroscopicity; also recorded: limited hygroscopicity
[1]; 5% to 95% RH, no hysteresis
  weight change through the sorption/desorption cycle: ~0.3%
[1]
  form recovered after the DVS experiment (XRPD): same as the starting material
[2]
  onset of DSC exotherm due to decomposition: about 207 °C
[3]
  outcome of solvent-mediated interconversion with Form A (relative thermodynamic stability): Form A prevailed for each experiment

## COCc1nnc2n1Cc1c(C#Cc3cnc(OC)s3)ncn1-c1ccc(Cl)cc1-2 [Form B]
[2]
  onset of DSC exotherm due to decomposition: about 190 °C
[3]
  outcome of solvent-mediated interconversion with Form A (relative thermodynamic stability): convert to Form A

## COCc1nnc2n1Cc1c(C#Cc3cnc(OC)s3)ncn1-c1ccc(Cl)cc1-2 [Form C]
[2]
  onset of DSC exotherm due to decomposition: 190 °C
[4]; 80° C., overnight
  behaviour upon overnight exposure to 80° C.: desolvate to Form B
[4]
  stability under ambient storage: remain unchanged for 9 weeks

## COCc1nnc2n1Cc1c(C#Cc3cnc(OC)s3)ncn1-c1ccc(Cl)cc1-2 [Form E]
[2]
  onset of DSC exotherm due to decomposition: ~201 °C
[3]
  outcome of solvent-mediated interconversion with Form A (relative thermodynamic stability): metastable relative to Form A

## COCc1nnc2n1Cc1c(C#Cc3cnc(OC)s3)ncn1-c1ccc(Cl)cc1-2 [Form F]
[1]; 5% to 95% RH
  hygroscopicity (DVS isotherm): limited hygroscopicity
[1]; from 5-95% RH
  weight gain on sorption: 1.8%
[1]
  form recovered after the DVS experiment (XRPD): still Form F
[1]; significant hysteresis
  weight loss upon desorption: 1.5%
[2]
  onset of DSC exotherm due to decomposition: above 120 °C
[4]; 100° C.
  behaviour upon exposure to 100° C.: does dehydrate
[4]; vacuum, ambient temperature
  stability under vacuum at ambient temperature: remain unchanged for 5 days

## COCc1nnc2n1Cc1c(C#Cc3cnc(OC)s3)ncn1-c1ccc(Cl)cc1-2 [Material D]
[2]
  onset of DSC exotherm due to decomposition: ~174 °C
[4]
  stability under ambient storage: Material D still remained
[3]
  outcome of solvent-mediated interconversion with Form A (relative thermodynamic stability): convert to Form A

## C#Cc1ccc2c(c1)C(c1ccccc1F)=N[C@H](C)c1c(C(=O)OCC)ncn1-2 [SH-053-2′F—R—CH3]
MAM-treated rats; MAM rats, systemic or infused into the ventral HPC
  number of spontaneously active DA neurons in the ventral tegmental area (VTA): reduces the number of spontaneously active DA neurons
MAM-treated rats; MAM-treated rats
  increased locomotor response to amphetamine: is reduced
MAM-treated rats; saline-treated and MAM-treated animals
  cortical-evoked responses of HPC neurons: diminished cortical-evoked responses

## CCC[C@@H]1CC(=O)N([C@@H](CC)C(N)=O)C1 [brivaracetam, (2S)-2-[(4R)-2-oxo-4-propylpyrrolidin-1-yl]butanamide]
[5]
  number of errors in the retention phase after the 2-hr delay: significant effect as a function of dose
aged-impaired rats; osmotic mini-pumps, started two weeks before, p=0.010
  spatial bias for the target quadrant compared to the other control quadrants: significant spatial bias for the target quadrant
aged-impaired rats; p=0.018
  time in the target quadrant vs vehicle-treated rats: significantly more time in the target quadrant
aged-impaired rats; p=0.036
  time in the target annulus vs vehicle-treated rats: significantly more time in the target annulus

## CC[C@@H](C(N)=O)N1C[C@H](C=C(F)F)CC1=O [seletracetam, (2S)-2-[(4S)-4-(2,2-difluoroethenyl)-2-oxopyrrolidin-1-yl]butanamide]
[5]
  number of errors in the retention phase after the 2-hr delay: significant effect as a function of dose
